Data: patent US20200206139A1, “COMPOSITIONS FOR THE IMPROVED DELIVERY OF DRUGS” (BOARD OF REGENTS, THE UNIVERSITY OF TEXAS SYSTEM, priority 2017, published 2020)
≈ marks a conversion by molar mass, not a printed value.

Tests used:
[1] = Atovaquone solubility in pharmaceutical excipients; type: physicochemical; conditions: thermodynamic from solid
[2] = Atovaquone solubility in pharmaceutical excipients; type: physicochemical; conditions: thermodynamic from solid; remark: listed apart in the source
Protocol: Excess atovaquone (100 mg/mL) (Molekula, Irvine, Calif.) was added to each of the following excipients: Benzyl Benzoate, Tween 20, Tween 80, PEG 200, PEG 400, Labrafac, Labrafil, Capryol, Capmul, Captex, Propylene Glycol and Isopropyl Palmitate. The mixtures were shaken at 100 RPM at 37° C. for 48 hours. Each individual sample was centrifuged at 3000 RPM for 10 minutes. The supernatant was then filtered through a 0.45 μm PTFE filter. Quantification of atovaquone content in the filtrate was performed using a Dionex HPLC (Thermo Fisher Scientific Inc., Waltham, Mass.) with an Inertsil® ODS-2 column (5 μm, 4.6×250 mm) with a mobile phase 0.1% TFA ACN: 0.1% TFA H2O (80:20) at flow rate of 2 mL/min and a run time of 10 minutes.

- solubility at 48 h ([1]; Capmul (neat excipient), oil or lipid, in Capmul, 37° C.): 3470 µg/mL (≈ 9.46 mM)
- solubility at 48 h ([1]; Captex (neat excipient), oil or lipid, in Captex, 37° C.): 4590 µg/mL (≈ 12.5 mM)
- solubility at 48 h ([1]; Labrafac (neat excipient), oil or lipid, in Labrafac, 37° C.): 4080 µg/mL (≈ 11.1 mM)
- solubility at 48 h ([1]; Propylene Glycol (neat excipient), organic solvent or mixture, in Proplylene Gycol, 37° C.): 380 µg/mL (≈ 1.04 mM)
- solubility at 48 h ([1]; Tween 80 (neat excipient), organic solvent or mixture, in Tween 80, 37° C.): 10200 µg/mL (≈ 27.9 mM)
- solubility at 48 h ([2]; Benzyl Benzoate (neat excipient), organic solvent or mixture, in Benzyl Benzoate, 37° C.): 14300 µg/mL (≈ 39 mM)
- solubility at 48 h ([2]; Capryol (neat excipient), oil or lipid, in Capryol, 37° C.): 5540 µg/mL (≈ 15.1 mM)
- solubility at 48 h ([2]; Isopropyl Palmitate (neat excipient), oil or lipid, in Isopropyl Palmitate, 37° C.): 2460 µg/mL (≈ 6.71 mM)
- solubility at 48 h ([2]; Labrafil (neat excipient), oil or lipid, in Labrafil, 37° C.): 3980 µg/mL (≈ 10.8 mM)
- solubility at 48 h ([2]; Labrasol (neat excipient), organic solvent or mixture, in Labrasol, 37° C.): 10200 µg/mL (≈ 27.9 mM)
- solubility at 48 h ([2]; PEG 200 (neat excipient), organic solvent or mixture, in PEG 200, 37° C.): 4780 µg/mL (≈ 13 mM)
- solubility at 48 h ([2]; PEG 400 (neat excipient), organic solvent or mixture, in PEG 400, 37° C.): 7220 µg/mL (≈ 19.7 mM)
- solubility at 48 h ([2]; Tween 20 (neat excipient), organic solvent or mixture, in Tween 20, 37° C.): 9690 µg/mL (≈ 26.4 mM)
SMILES: O=C1C(O)=C([C@H]2CC[C@H](c3ccc(Cl)cc3)CC2)C(=O)c2ccccc21 [atovaquone]
